Reference: US6613899B1, “Method for preventing deposits in oil extraction” (Cooperatie Cosun U.A., priority 1998, dated 2003)

Tests used:
[1] = Barium sulphate scale inhibition; settings: pH 5.5, 80° C., 10 hours
Procedure: (§1) The scale-inhibiting action of CMI (DP≈10) was determined for barium sulphate. A saturated barium sulphate solution was prepared by mixing a barium chloride solution (380 mg/l) with a sodium sulphate solution (3350 mg/l) in a 1:1 ratio, with a maximum amount of barium sulphate to be formed of 210 mg/l. 5 mg/l, 10 mg/l or 15 mg/l of inhibitor was added to the solution. The pH of the solution was adjusted to 5.5 by addition of 1 ml acetate buffer (3.6 g sodium acetate trihydrate and 0.5 g acetic acid per 100 ml) per 100 ml. The solution was then left to stand at 80° C. After 10 hours the solution was filtered by suction through a 0.45 μm Millipore filter and the barium content of the filtrate was determined. The action of the inhibitor was calculated on the basis of the barium value for the experiment without inhibitor (0 per cent inhibition) and the barium value at which no precipitate was formed (100 per cent inhibition).

[2] = Barium sulphate scale inhibition in presence of Fe2+ ions; settings: 38 mg/l Fe2+ ions, pH 5.5, 80° C., 10 hours
Procedure: as §1
Example 4 was repeated, with the exception that the barium sulphate solution contained 38 mg/l of Fe^2+ ions.

O=P(O)(O)CN(CCN(CP(=O)(O)O)CP(=O)(O)O)CCN(CP(=O)(O)O)CP(=O)(O)O [Pentaphosphonate (DETPMP)]
Inhibition (%) with 5 mg/l ([1]; 5 mg/l inhibitor): 18.0%
Inhibition (%) with 10 mg/l ([1]; 10 mg/l inhibitor): 38.5%
Inhibition (%) with 15 mg/l ([1]; 15 mg/l inhibitor): 55.5%
Inhibition (%) with 5 mg/l ([2]; 5 mg/l inhibitor): 12.0%
Inhibition (%) with 10 mg/l ([2]; 10 mg/l inhibitor): 21.5%
Inhibition (%) with 15 mg/l ([2]; 15 mg/l inhibitor): 34.5%
